In patent US5698547A, “Cephalosporin antibiotics” (Microcide Pharmaceuticals, Inc., priority 1995, dated 1997):
≈ marks a conversion by molar mass, not a printed value. Where a name gives a salt, the structure may show the parent alone.

How the values were obtained:
[1] = tested on: S. aureus Col (Meth^R) (lac^-); assay: MIC by agar dilution, S. aureus Col (Meth^R) (lac^-); assay type: cell-based; conditions: Staphylococcus aureus; agar dilution; S. aureus Col (Meth^R) (lac^-); read-out: MIC
Procedure: The compounds of the invention were evaluated against several β-lactamresistant bacteria strains by determining the minimum inhibitory concentration (MIC, μg/ml) of each compound with respect to each strain. The MIC, the lowest concentration of antibiotic which inhibits growth of the test organism, was determined by the agar dilution method.
To determine the MIC for bacterial isolates, the test compound was incorporated in a series of two-fold dilutions into liquified Mueller-Hinton agar. Upon solidification, a number of different bacterial strains were spot inoculated with a replicating device onto the agar surface. […] The procedures used in these studies have been standardized by the National Committee for Clinical Laboratory Standards (NCCLS), as per the NCCLS publication entitled METHODS FOR DILUTION ANTIMICROBIAL SUSCEPTIBILITY TESTS (1991), which is incorporated herein by reference.
Aliquots of antimicrobial agents were prepared in phosphate buffered saline (PBS) at pH 7.2. Tween 20 or DMSO was used as a solubilizing vehicle as needed. Standard methods of vortexing, sonicating and gentle heat were used to facilitate solubilizing the test agent. Typically, the concentration of the stock solution was 10× that of the highest drug concentration tested. A 1.28 mg/mL stock solution was used with a subsequent highest working concentration of 128 μg/mL. Serial two-fold dilutions were done through ≤0.25 μg/mL. Each drug level was tested in duplicate. Two-fold drug dilutions were done in sterile 50 mL tubes with a final drug volume of 5 mL. Upon the addition of 45 mL of molten agar, a 10-fold dilution resulted. Two, 25 mL. plates were then poured into 15×150 mm square Petri plates with grids and allowed to harden.
A control plate with a reference drug, either cefotaxime, vancomycin or imipenem, was used as the positive growth control. Stock concentrations of reference antibiotics were prepared and frozen at -80° C. Upon preparation, the control plates were sealed and stored in the refrigerator for up to 1 week prior to use; however, imipenem control plates had to be prepared just prior to use. All test plates were used within 24 hours of preparation.
Satisfactory results were obtained where the inoculum contained about 10^4 colony forming units (cfu) ±0.5 logs. Starting with pure cultures of the test isolates on agar plates, a few isolated colonies were transferred to a tube of nutrient broth and allowed to grow 4-6 hours at 35°-36° C. to reach log-phase growth. Dropwise addition of the broth culture to PBS was done to match a 0.5 McFarland turbidity standard equal to 10^8 cfu/mL. This was further diluted ten-fold in PBS to reach a working inoculum concentration of 10^7 cfu/mL. When 1 μL of the working inoculum was applied to the agar surface a concentration of about 10^4 cfu per spot was obtained.
Disposable sterile 1 μL loops were used to inoculate test plates, with each isolate in a designated grid on the agar plate. An alternate method of inoculation involved the use of a replica plater, a device with 48 steel pins allowing the simultaneous inoculation of multiple isolates. After the spots had dried, the plates were incubated at 35°-36° C. for 16-20 hours. Endpoints were assessed as the minimum inhibitory concentration (MIC) of antimicrobial agent.
The novel agents of this invention are notable for their enhanced activity against S. aureus Col and Enterococci (E. faecium and E. faecalis). The S. aureus Col strain is a high-level PBP2a producer, whereas S. aureus Col 8A, its isogenic partner, lacks PBP2a. […] Thus, the compounds of the present invention are effective against PBP2a-producing bacteria.

[2] = tested on: methicillin-susceptible S. aureus strain ATCC 13709; assay: murine model for lethal bacteremic peritonitis; assay type: in vivo, female Swiss-Webster mice; conditions: subcutaneous, 72 h
Procedure: Groups of 5 female Swiss-Webster mice (Simonsen, Gilroy, Calif.) each are challenged by the intraperitoneal (IP) route with tenfold increments of a bacterial inoculum. This permits calculation of the mean lethal dose (LD50) and the LD100. For preliminary evaluation of a new antibiotic, mice are challenged IP with an LD100 titer of bacteria. In two equal doses administered at the time of bacterial challenge and 2 hours later, groups of 10 mice each are treated subcutaneously with two-fold increments of the test drug and an antibiotic of known efficacy in mice and humans (i.e., positive control). Mice are observed for 72 h. Those alive at 72 h are considered long term survivors. The total drug dose in mg/kg that protects 50% of mice in a group from death is termed the mean protective dose (PD50). PD50 s are similarly determined for several pathogens. The quantitative endpoints for the new drug are then compared with those obtained with reference antibiotics.
Six ten-fold dilutions of inoculum suspended in 0.5 mL of sterilized 7% hog gastric mucin (Sigma) are injected IP in groups of 5 mice each. A control group of 5 mice receive mucin alone. Mice are observed for 72 h. Those alive at 72 h are considered long term survivors. The mean lethal dose (LD50) and 100% lethal dose (LD100) are determined by the probit test.
For antibiotic efficacy studies, mice are challenged IP with bacterial titers that will afford an LD100 for the test strain. In two equal doses administered at the time of bacterial challenge and 2 hours later, groups of 10 mice each are treated by the subcutaneous route (SC) with twofold increments of the test antibiotic; another group is treated similarly with a reference antibiotic of known efficacy in animals and man. Drug doses can range from 0.01 to 512 mg/kg. If the drug is poorly soluble, Tween 20 or propylene glycol will be employed to solubilize the drug. Animals are observed for 72 h. The 50% protective dose (PD50) is calculated in mg/kg by the probit method. The PD50 is the same as the 50% effective dose (ED50) and the 50% curative dose (CD50). Samples of blood from the hearts of all animals that die and from half the mice that survive are cultured on brain-heart infusion agar. Animals that received a protective dosage of the test drug will be alive at 72 h, although they may appear moderately ill to very ill during the observation period. […] Most of these mice will die within 6 to 48 h. Those alive at 72 h will be considered long term survivors.
(Compound numbers correspond to those in MIC tables; data
reported for challenge with methicillin-susceptible S. aureus

Row | SMILES | MIC [1] | also measured
1 | N#Cc1ccc(SC2=C(C(=O)O)N3C(=O)[C@@H](NC(=O)Cc4ccccc4)[C@H]3SC2)c(C#N)c1 [Cmpd 51, (7R)-7-[(Phenylacetyl)amino]-3-(2,4-dicyanophenylthio)-3-cephem-4-carboxylic acid] | 4 µg/mL (≈ 8.39 µM) | 
2 | CSCC(=O)N[C@@H]1C(=O)N2C(C(=O)O)=C(Sc3ccccc3CNC(=N)N)CS[C@H]12 [Cmpd 135, (7R)-7-[(Methylthioacetyl)amino]-3-(2-guanidiniummethylphenylthio)-3-cephem-4-carboxylate, inner salt] | 8 µg/mL | 
3 | O=C(Cc1ccccc1)N[C@@H]1C(=O)N2C(C(=O)O)=C(Sc3ccccc3-c3ccco3)CS[C@H]12 [Cmpd 27, (7R)-7-[(Phenylacetyl)amino]-3-(2-(2-furyl)phenylthio)-3-cephem-4-carboxylic acid] | 1 µg/mL (≈ 2.03 µM) | 
4 | CC(C)(C)c1ccccc1SC1=C(C(=O)O)N2C(=O)[C@@H](NC(=O)Cc3ccccc3)[C@H]2SC1 [Cmpd 46, (7R)-7-[(Phenylacetyl)amino]-3-(2-tert-butylphenylthio)-3-cephem-4-carboxylic acid] | 1 µg/mL (≈ 2.07 µM) | 
5 | O=C(Cc1ccccc1)N[C@@H]1C(=O)N2C(C(=O)O)=C(Sc3ccc(F)cc3)CS[C@H]12 [Cmpd 1, (7R)-7-[(Phenylacetyl)amino]-3-(p-fluorophenylthio)-3-cephem-4-carboxylic acid] | 16 µg/mL (≈ 36 µM) | 
6 | CSCC(=O)N[C@@H]1C(=O)N2C(C(=O)O)=C(Sc3ccccc3CSC(=N)NN)CS[C@H]12 [Cmpd 133, (7R)-7-[(methylthioacetyl)amino]-3-(2-(N-amino)isothiouroniummethylphenylthio)-3-cephem-4-carboxylate, inner salt] | 2 to 4 µg/mL | 
7 | O=C(Cc1ccccc1)N[C@@H]1C(=O)N2C(C(=O)O)=C(Sc3ccc(Cl)c(Cl)c3)CS[C@H]12 [Cmpd 18, (7R)-7-[(Phenylacetyl)amino]-3-(3,4-dichlorophenylthio)-3-cephem-4-carboxylic acid] | 4 µg/mL (≈ 8.07 µM) | 
8 | COc1ccc(CC(=O)N[C@@H]2C(=O)N3C(C(=O)O)=C(Sc4cc(Cl)ccc4Cl)CS[C@H]23)cc1 [Cmpd 32, (7R)-7-[(p-Methoxyphenylacetyl)amino]-3-(2,5-dichlorophenylthio)-3-cephem-4-carboxylic acid] | 1 µg/mL (≈ 1.9 µM) | 
9 | O=C(Cc1ccccc1)N[C@@H]1C(=O)N2C(C(=O)O)=C(Sc3cccc4c3CCCC4)CS[C@H]12 [Cmpd 56, (7R)-7-[(Phenylacetyl)amino]-3-(5,6,7,8-tetrahydronaphthalen-1-ylthio)-3-cephem-4-carboxylic acid] | 1 µg/mL (≈ 2.08 µM) | 
10 | N=C(N)SCc1cccc(SC2=C(C(=O)O)N3C(=O)[C@@H](NC(=O)Cc4ccccc4)[C@H]3SC2)c1 [Cmpd 80, (7R)-7-[(Phenylacetyl)amino]-3-(3-isothiouroniummethylphenylthio)-3-cephem-4-carboxylate, inner salt] | 2 µg/mL | 
11 | N#CCC(=O)N[C@@H]1C(=O)N2C(C(=O)O)=C(Sc3ccccc3-c3ccccc3)CS[C@H]12 [Cmpd 34, (7R)-7-[(Cyanoacetyl)amino]-3-(2-biphenylthio)-3-cephem-4-carboxylic acid] | 2 µg/mL (≈ 4.43 µM) | 
12 | O=C(Cc1cccs1)N[C@@H]1C(=O)N2C(C(=O)O)=C(Sc3ccccc3I)CS[C@H]12 [Cmpd 25, (7R)-7-[(2-Thienylacetyl)amino]-3-(o-iodophenylthio)-3-cephem-4-carboxylicacid] | 1 µg/mL (≈ 1.79 µM) | 
13 | CN[C@H](CC(C)C)C(=O)N[C@H]1C(=O)N[C@@H](CC(N)=O)C(=O)N[C@H]2C(=O)N[C@H]3C(=O)N[C@H](C(=O)N[C@H](C(=O)O)c4cc(O)cc(O)c4-c4cc3ccc4O)[C@H](O)c3ccc(c(Cl)c3)Oc3cc2cc(c3O[C@@H]2O[C@H](CO)[C@@H](O)[C@H](O)[C@H]2O[C@H]2C[C@](C)(N)[C@H](O)[C@H](C)O2)Oc2ccc(cc2Cl)[C@H]1O [Vancomycin, reference compound] |  | Mortality ([2]; dose 0.625 mg/kg): 8/10; Mortality ([2]; dose 1.25 mg/kg): 6/10; Mortality ([2]; dose 2 mg/kg): 8/10; Mortality ([2]; dose 2.5 mg/kg): 5/10; Mortality ([2]; dose 4 mg/kg): 2/10; Mortality ([2]; dose 5 mg/kg): 5/10; Mortality ([2]; dose 8 mg/kg): 0/10; Mortality ([2]; dose 10 mg/kg): 2/10; Mortality ([2]; dose 16 mg/kg): 0/10; ED50 ([2]; two equal doses, S. aureus ATCC 13709 IP challenge, 4320 min): 2.79 mg/kg
14 | O=C(Cc1ccccc1)N[C@@H]1C(=O)N2C(C(=O)O)=C(Sc3cccc(-c4ccccc4)c3)CS[C@H]12 [Cmpd 10, (7R)-7-[(Phenylacetyl)amino]-3-(3-biphenylthio)-3-cephem-4-carboxylic acid] | 8 µg/mL (≈ 15.9 µM) | 
15 | O=C(O)C1=C(Sc2ccnn2-c2ccccc2)CS[C@@H]2[C@H](NC(=O)C(=NO)c3ccco3)C(=O)N12 [Cmpd 121, (7R)-7-[2-(2-furyl)-2-(hydroxyimino)acetamido]-3-(1-N-phenylpyrazol-5-ylthio)-3-cephem-4-carboxylic acid] | 4 µg/mL (≈ 7.82 µM) | 
16 | N=C(N)SCc1ccccc1SC1=C(C(=O)O)N2C(=O)[C@@H](NC(=O)/C(=N\O)c3ccccc3)[C@H]2SC1 [Cmpd 136, (7R)-7-[(Z)-2-(Phenyl)-2-(hydroxyimino)acetamido]-3-(2-isothiouroniummethylphenylthio)-3-cephem-4-carboxylate, inner salt] | 2 µg/mL | 
17 | O=C(Cc1ccccc1)N[C@@H]1C(=O)N2C(C(=O)O)=C(Sc3cccc4ccccc34)CS[C@H]12 [Cmpd 54, (7R)-7-[(Phenylacetyl)amino]-3-(1-naphthalenylthio)-3-cephem-4-carboxylic acid] | 1 µg/mL (≈ 2.1 µM) | 
18 | Nc1nc(/C(=N/O)C(=O)N[C@@H]2C(=O)N3C(C(=O)O)=C(Sc4ccccc4I)CS[C@H]23)cs1 [Cmpd 22, (7R)-7-[(Z)-2-(aminothiazol-4-yl)-2-(hydroxyimino)acetamido]-3-(o-iodophenylthio)-3-cephem-4-carboxylic acid] | 2 µg/mL (≈ 3.31 µM) | 
19 | C=Cc1ccccc1SC1=C(C(=O)O)N2C(=O)[C@@H](NC(=O)Cc3ccccc3)[C@H]2SC1 [Cmpd 36, (7R)-7-[(Phenylacetyl)amino]-3-(2-vinylphenylthio)-3-cephem-4-carboxylic acid] | 2 µg/mL (≈ 4.42 µM) | 
20 | N#CCC(=O)N[C@@H]1C(=O)N2C(C(=O)O)=C(Sc3cccnc3-c3ccccc3)CS[C@H]12 [Cmpd 85, (7R)-7-[(Cyanoacetyl)amino]-3-(2-phenylpyridin-3-ylthio)-3-cephem-4-carboxylic acid] | 4 µg/mL (≈ 8.84 µM) | 
